Assay results: PubChem BioAssay (NCI)
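Results reflect a 48-hour exposure of cells in 96-well plates to compound at five concentrations. At the GI50, growth is halved. TGI: concentration producing complete growth inhibition.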

Legend:
Assay in all cases: growth of human tumour cells (NCI), 48 h
K-562 leukemia = test system: K-562 leukemia
HOP-62 NSCLC = test system: HOP-62 NSCLC
SF-295 CNS = test system: SF-295 CNS
LOX IMVI melanoma = test system: LOX IMVI melanoma
SNB-75 CNS = test system: SNB-75 CNS
NCI-H460 lung = test system: NCI-H460 lung
T-47D breast = test system: T-47D breast
SR leukemia = test system: SR leukemia
NCI-H226 lung = test system: NCI-H226 lung
OVCAR-8 ovarian = test system: OVCAR-8 ovarian
TK-10 renal = test system: TK-10 renal
UACC-62 melanoma = test system: UACC-62 melanoma
MDA-MB-231 breast = test system: MDA-MB-231 breast
SF-539 CNS = test system: SF-539 CNS
OVCAR-3 ovarian = test system: OVCAR-3 ovarian
MOLT-4 leukemia = test system: MOLT-4 leukemia
SK-MEL-2 melanoma = test system: SK-MEL-2 melanoma
RPMI-8226 leukemia = test system: RPMI-8226 leukemia
HT29 colon = test system: HT29 colon
U251 CNS = test system: U251 CNS
IGROV1 ovarian = test system: IGROV1 ovarian
HS 578T breast = test system: HS 578T breast
SNB-19 CNS = test system: SNB-19 CNS
A498 renal = test system: A498 renal
MCF7 breast = test system: MCF7 breast
ACHN renal = test system: ACHN renal
HL-60(TB) leukemia = test system: HL-60(TB) leukemia
KM12 colon = test system: KM12 colon
786-0 renal = test system: 786-0 renal
CCRF-CEM leukemia = test system: CCRF-CEM leukemia
SK-OV-3 ovarian = test system: SK-OV-3 ovarian
BT-549 breast = test system: BT-549 breast
HCC-2998 colon = test system: HCC-2998 colon
SW-620 colon = test system: SW-620 colon
COLO 205 colon = test system: COLO 205 colon
EKVX NSCLC = test system: EKVX NSCLC
RXF 393 renal = test system: RXF 393 renal
NCI-H23 lung = test system: NCI-H23 lung
DU-145 prostate = test system: DU-145 prostate
SF-268 CNS = test system: SF-268 CNS
OVCAR-4 ovarian = test system: OVCAR-4 ovarian
HOP-92 NSCLC = test system: HOP-92 NSCLC
PC-3 prostate = test system: PC-3 prostate
SK-MEL-5 melanoma = test system: SK-MEL-5 melanoma
OVCAR-5 ovarian = test system: OVCAR-5 ovarian
MALME-3M melanoma = test system: MALME-3M melanoma
UO-31 renal = test system: UO-31 renal
CAKI-1 renal = test system: CAKI-1 renal
HCT-15 colon = test system: HCT-15 colon
SN12C renal = test system: SN12C renal
HCT-116 colon = test system: HCT-116 colon
A549 NSCLC = test system: A549 NSCLC
MDA-MB-435 = test system: MDA-MB-435
M14 melanoma = test system: M14 melanoma

Structure (SMILES): COc1ccc2c(c1)NC(=O)CN2c1nc(C)nc2ccccc12
- GI50 (K-562 leukemia): 0.359 nM
- TGI (K-562 leukemia): > 100 µM
- GI50 (HOP-62 NSCLC): 0.69 nM
- TGI (HOP-62 NSCLC): > 100 µM
- GI50 (SF-295 CNS): 0.318 nM
- GI50 (LOX IMVI melanoma): 0.526 nM
- TGI (LOX IMVI melanoma): > 100 µM
- GI50 (SNB-75 CNS): 0.36 nM
- TGI (SNB-75 CNS): > 100 µM
- GI50 (NCI-H460 lung): 0.397 nM
- TGI (NCI-H460 lung): > 100 µM
- GI50 (T-47D breast): 5.89 µM
- TGI (T-47D breast): > 100 µM
- TGI (SR leukemia): > 100 µM
- TGI (NCI-H226 lung): > 100 µM
- GI50 (OVCAR-8 ovarian): 0.524 nM
- TGI (OVCAR-8 ovarian): > 100 µM
- TGI (TK-10 renal): > 100 µM
- GI50 (UACC-62 melanoma): 0.432 nM
- TGI (UACC-62 melanoma): > 100 µM
- GI50 (MDA-MB-231 breast): 0.914 nM
- TGI (MDA-MB-231 breast): > 100 µM
- GI50 (SF-539 CNS): 0.298 nM
- TGI (SF-539 CNS): 1.44 nM
- GI50 (OVCAR-3 ovarian): 0.266 nM
- TGI (OVCAR-3 ovarian): 0.746 nM
- GI50 (MOLT-4 leukemia): 0.605 nM
- TGI (MOLT-4 leukemia): > 100 µM
- TGI (SK-MEL-2 melanoma): > 100 µM
- GI50 (RPMI-8226 leukemia): 0.603 nM
- TGI (RPMI-8226 leukemia): > 100 µM
- GI50 (HT29 colon): 0.307 nM
- GI50 (U251 CNS): 0.437 nM
- TGI (U251 CNS): > 100 µM
- GI50 (IGROV1 ovarian): 0.829 nM
- TGI (IGROV1 ovarian): 74.9 µM
- GI50 (HS 578T breast): 0.601 nM
- TGI (HS 578T breast): > 100 µM
- GI50 (SNB-19 CNS): 0.655 nM
- TGI (SNB-19 CNS): > 100 µM
- GI50 (A498 renal): 0.376 nM
- GI50 (MCF7 breast): 0.363 nM
- TGI (MCF7 breast): > 100 µM
- GI50 (ACHN renal): 0.926 nM
- TGI (ACHN renal): > 100 µM
- GI50 (HL-60(TB) leukemia): 0.361 nM
- TGI (HL-60(TB) leukemia): 1.51 nM
- GI50 (KM12 colon): 0.353 nM
- TGI (KM12 colon): > 100 µM
- GI50 (786-0 renal): 3.46 nM
- TGI (786-0 renal): > 100 µM
- GI50 (CCRF-CEM leukemia): 0.551 nM
- TGI (CCRF-CEM leukemia): > 100 µM
- GI50 (SK-OV-3 ovarian): 0.409 nM
- TGI (SK-OV-3 ovarian): 7.19 µM
- GI50 (BT-549 breast): 2.1 nM
- GI50 (HCC-2998 colon): 0.371 nM
- TGI (HCC-2998 colon): 34.2 µM
- GI50 (SW-620 colon): 0.487 nM
- TGI (SW-620 colon): > 100 µM
- GI50 (COLO 205 colon): 0.322 nM
- TGI (COLO 205 colon): 1.2 nM
- TGI (EKVX NSCLC): > 100 µM
- TGI (RXF 393 renal): > 100 µM
- GI50 (NCI-H23 lung): 0.458 nM
- TGI (NCI-H23 lung): > 100 µM
- TGI (DU-145 prostate): > 100 µM
- GI50 (SF-268 CNS): 0.788 nM
- TGI (SF-268 CNS): > 100 µM
- TGI (OVCAR-4 ovarian): > 100 µM
- GI50 (HOP-92 NSCLC): 49.5 µM
- TGI (HOP-92 NSCLC): > 100 µM
- GI50 (PC-3 prostate): 0.636 nM
- TGI (PC-3 prostate): > 100 µM
- GI50 (SK-MEL-5 melanoma): 0.4 nM
- TGI (SK-MEL-5 melanoma): 1.86 nM
- TGI (OVCAR-5 ovarian): > 100 µM
- TGI (MALME-3M melanoma): > 100 µM
- TGI (UO-31 renal): > 100 µM
- GI50 (CAKI-1 renal): 0.497 nM
- TGI (CAKI-1 renal): > 100 µM
- GI50 (HCT-15 colon): 0.413 nM
- TGI (HCT-15 colon): > 100 µM
- GI50 (SN12C renal): 1.01 nM
- TGI (SN12C renal): > 100 µM
- GI50 (HCT-116 colon): 0.369 nM
- TGI (HCT-116 colon): > 100 µM
- GI50 (A549 NSCLC): 0.588 nM
- TGI (A549 NSCLC): > 100 µM
- GI50 (MDA-MB-435): 0.208 nM
- TGI (MDA-MB-435): 0.484 nM
- GI50 (M14 melanoma): 0.336 nM
- TGI (M14 melanoma): > 100 µM
